Reference: PubChem BioAssay AID1259407 (Chemical Carcinogenesis Research Information System (CCRIS), 2018)
Activity calls are given as the source filed them. The rule behind the calls is not given here.

System: CCRIS mutagenicity, Ames/micronucleus/aberration tests
Assay: CCRIS mutagenicity studies
[1] = Test System: AMES SALMONELLA TYPHIMURIUM, Strain/Indicator: TA98, Metabolic Activation: NONE, Method: PREINCUBATION
[2] = Test System: AMES SALMONELLA TYPHIMURIUM, Strain/Indicator: TA98, Metabolic Activation: NONE, Method: STANDARD PLATE
[3] = Test System: AMES SALMONELLA TYPHIMURIUM, Strain/Indicator: TA100, Metabolic Activation: HAMSTER, LIVER, S-9, AROCLOR 1254 (10%), Method: PREINCUBATION
[4] = Test System: AMES SALMONELLA TYPHIMURIUM, Strain/Indicator: TA100, Metabolic Activation: NONE, Method: PREINCUBATION
[5] = Test System: AMES SALMONELLA TYPHIMURIUM, Strain/Indicator: TA100, Metabolic Activation: NONE, Method: STANDARD PLATE
[6] = Test System: AMES SALMONELLA TYPHIMURIUM, Strain/Indicator: TA100, Metabolic Activation: RAT, LIVER, S-9, AROCLOR 1254 (10%), Method: PREINCUBATION
[7] = Test System: AMES SALMONELLA TYPHIMURIUM, Strain/Indicator: TA100, Metabolic Activation: RAT, LIVER, S-9, AROCLOR 1254, Method: STANDARD PLATE
[8] = Test System: AMES SALMONELLA TYPHIMURIUM, Strain/Indicator: TA1535, Metabolic Activation: NONE, Method: PREINCUBATION
[9] = Test System: AMES SALMONELLA TYPHIMURIUM, Strain/Indicator: TA1535, Metabolic Activation: NONE, Method: STANDARD PLATE
[10] = Test System: AMES SALMONELLA TYPHIMURIUM, Strain/Indicator: TA1535, Metabolic Activation: RAT, LIVER, S-9, AROCLOR 1254, Method: STANDARD PLATE
[11] = Test System: AMES SALMONELLA TYPHIMURIUM, Strain/Indicator: TA1537, Metabolic Activation: HAMSTER, LIVER, S-9, AROCLOR 1254 (10%), Method: PREINCUBATION
[12] = Test System: AMES SALMONELLA TYPHIMURIUM, Strain/Indicator: TA1537, Metabolic Activation: NONE, Method: PREINCUBATION
[13] = Test System: AMES SALMONELLA TYPHIMURIUM, Strain/Indicator: TA1537, Metabolic Activation: NONE, Method: STANDARD PLATE
[14] = Test System: AMES SALMONELLA TYPHIMURIUM, Strain/Indicator: TA1537, Metabolic Activation: RAT, LIVER, S-9, AROCLOR 1254 (10%), Method: PREINCUBATION

Measured: mutagenic call

NCCNCCNCCNCCN
inactive: [2] inactive; negative | Test System: AMES SALMONELLA TYPHIMURIUM, Strain/Indicator: TA98, Metabolic Activation: RAT, LIVER, S-9, AROCLOR 1254, Method: STANDARD PLATE inactive; negative | Test System: AMES SALMONELLA TYPHIMURIUM, Strain/Indicator: TA98, Metabolic Activation: RAT, LIVER, S-9, PCB, Method: PREINCUBATION inactive; negative | [5] inactive; negative | [7] inactive; negative | Test System: AMES SALMONELLA TYPHIMURIUM, Strain/Indicator: TA100, Metabolic Activation: RAT, LIVER, S-9, PCB, Method: PREINCUBATION inactive; negative | [8] inactive; negative | [9] inactive; negative | [10] inactive; negative | [11] inactive; negative | [12] inactive; negative | [13] inactive; negative | [14] inactive; negative | Test System: AMES SALMONELLA TYPHIMURIUM, Strain/Indicator: TA1537, Metabolic Activation: RAT, LIVER, S-9, AROCLOR 1254, Method: STANDARD PLATE inactive; negative | Test System: AMES SALMONELLA TYPHIMURIUM, Strain/Indicator: TA1538, Metabolic Activation: NONE, Method: STANDARD PLATE inactive; negative | Test System: AMES SALMONELLA TYPHIMURIUM, Strain/Indicator: TA1538, Metabolic Activation: RAT, LIVER, S-9, AROCLOR 1254, Method: STANDARD PLATE inactive; negative | Test System: CHINESE HAMSTER OVARY, Strain/Indicator: CHO (HGPRT)/6-THIOGUANINE, Metabolic Activation: NONE inactive; negative | Test System: CHINESE HAMSTER OVARY, Strain/Indicator: CHO (HGPRT)/6-THIOGUANINE, Metabolic Activation: RAT, LIVER, S-9, AROCLOR 1254 inactive; negative
active: [1] active; positive | [3] active; positive | [4] active; positive | [6] active; positive | Test System: UDS RAT HEPATOCYTES, Strain/Indicator: THY INCORP, Metabolic Activation: NONE, Method: SCINTILLATION SPECTROMETRY active; positive

Oc1cccc2cc3cccc(O)c3c(O)c12
inactive: [5] inactive; negative | [7] inactive; negative | [9] inactive; negative | [10] inactive; negative | Test System: E. COLI, Strain/Indicator: WP2 UVRA, Metabolic Activation: HAMSTER, LIVER, S-9, AROCLOR 1254, Method: STANDARD PLATE inactive; negative | Test System: E. COLI, Strain/Indicator: WP2 UVRA, Metabolic Activation: HAMSTER, LIVER, S-9, Method: STANDARD PLATE inactive; negative | Test System: E. COLI, Strain/Indicator: WP2 UVRA, Metabolic Activation: MOUSE, LIVER, S-9, AROCLOR 1254, Method: STANDARD PLATE inactive; negative | Test System: E. COLI, Strain/Indicator: WP2 UVRA, Metabolic Activation: MOUSE, LIVER, S-9, Method: STANDARD PLATE inactive; negative | Test System: E. COLI, Strain/Indicator: WP2 UVRA, Metabolic Activation: NONE, Method: STANDARD PLATE inactive; negative | Test System: E. COLI, Strain/Indicator: WP2 UVRA, Metabolic Activation: RAT, LIVER, S-9, AROCLOR 1254, Method: STANDARD PLATE inactive; negative | Test System: E. COLI, Strain/Indicator: WP2 UVRA, Metabolic Activation: RAT, LIVER, S-9, Method: STANDARD PLATE inactive; negative

CNc1snc2ccccc12
inactive: [2] inactive; negative | Test System: AMES SALMONELLA TYPHIMURIUM, Strain/Indicator: TA98, Metabolic Activation: S-9, Method: STANDARD PLATE inactive; negative | [5] inactive; negative | Test System: AMES SALMONELLA TYPHIMURIUM, Strain/Indicator: TA100, Metabolic Activation: S-9, Method: STANDARD PLATE inactive; negative | [9] inactive; negative | Test System: AMES SALMONELLA TYPHIMURIUM, Strain/Indicator: TA1535, Metabolic Activation: S-9, Method: STANDARD PLATE inactive; negative | [13] inactive; negative | Test System: AMES SALMONELLA TYPHIMURIUM, Strain/Indicator: TA1537, Metabolic Activation: S-9, Method: STANDARD PLATE inactive; negative

CN(C)CCOC(C)(c1ccccc1)c1ccccn1 (centres undefined)
inactive: Test System: AMES SALMONELLA TYPHIMURIUM, Strain/Indicator: TA98, Metabolic Activation: HAMSTER, LIVER, S-9, AROCLOR 1254 (10%), Method: PREINCUBATION inactive; negative | [1] inactive; negative | Test System: AMES SALMONELLA TYPHIMURIUM, Strain/Indicator: TA98, Metabolic Activation: RAT, LIVER, S-9, AROCLOR 1254 (10%), Method: PREINCUBATION inactive; negative | [3] inactive; negative | [4] inactive; negative | [6] inactive; negative | Test System: AMES SALMONELLA TYPHIMURIUM, Strain/Indicator: TA1535, Metabolic Activation: HAMSTER, LIVER, S-9, AROCLOR 1254 (10%), Method: PREINCUBATION inactive; negative | [8] inactive; negative | Test System: AMES SALMONELLA TYPHIMURIUM, Strain/Indicator: TA1535, Metabolic Activation: RAT, LIVER, S-9, AROCLOR 1254 (10%), Method: PREINCUBATION inactive; negative | [11] inactive; negative | [12] inactive; negative | [14] inactive; negative
